Source: patent publication US8362067B2, “3-aminoalkyl-1,3-dihydro-2H-indol-2-one derivatives, preparation thereof and therapeutic use thereof” (Sanofi, priority 2008, dated 2013)
Structures can show the parent of a compound that is named as a salt.

Compound	melting point [°C]
COc1cc2c(cc1Cl)C(CCCN1CCNCC1)(c1ccccc1F)C(=O)N2S(=O)(=O)c1ccc(OC(F)F)cc1 (stereo not shown) (as salt: HCl) [compound 24, 5-chloro-1-{[4-(difluoromethoxy)phenyl]sulfonyl}-3-(2-fluorophenyl)-6-methoxy-3-(3-(piperazin-1-yl)propyl)-1,3-dihydro-2H-indol-2-one]	218
CCOc1ccc(S(=O)(=O)N2C(=O)C(CCCN3CCC(O)CC3)(c3ccccc3F)c3cc(Cl)c(OC)cc32)cc1OC (stereo not shown)	102
CCCCOc1ccc(S(=O)(=O)N2C(=O)C(CCCN3CCN(C)CC3)(c3ccccc3F)c3cc(Cl)c(OC)cc32)cc1 (stereo not shown) (as salt: HCl)	156
COc1ccc(S(=O)(=O)N2C(=O)C(CCCN3CCNCC3)(c3ccccc3F)c3cc(Cl)c(OC)cc32)cc1C (stereo not shown) (as salt: HCl) [compound 21, 5-chloro-3-(2-fluorophenyl)-6-methoxy-1-[(4-methoxy-3-methylphenyl)sulfonyl]-3-(3-(piperazin-1-yl)propyl)-1,3-dihydro-2H-indol-2-one]	234
COc1ccc(S(=O)(=O)N2C(=O)C(CCCN3CCCCC3)(c3ccccc3F)c3cc(Cl)c(OC)cc32)c(OC)c1 (stereo not shown)	105
COc1cc2c(cc1Cl)C(CCCN1CCN(C)CC1)(c1ccccc1F)C(=O)N2S(=O)(=O)c1ccc(O)cc1 (stereo not shown)	169
CCOc1ccc(S(=O)(=O)N2C(=O)C(CCCN3CCOCC3)(c3ccccc3F)c3cc(Cl)c(OC)cc32)cc1OC (stereo not shown)	153
COc1ccc(S(=O)(=O)N2C(=O)C(CCCN3CCNCC3)(c3ccccc3F)c3cc(Cl)c(OC)cc32)c(OC)c1 (stereo not shown) (as salt: HCl) [compound 16, 5-chloro-1-[(2,4-dimethoxyphenyl)sulfonyl]-3-(2-fluorophenyl)-6-methoxy-3-(3-(piperazin-1-yl)propyl)-1,3-dihydro-2H-indol-2-one]	243
COc1ccc(S(=O)(=O)N2C(=O)C(CCCN3CCNCC3)(c3ccccc3F)c3cc(OC)c(OC)cc32)cc1C (stereo not shown) (as salt: HCl) [compound 108]	160
COc1cc2c(cc1Cl)C(CCCCCN1CCCCC1)(c1ccccc1F)C(=O)N2S(=O)(=O)c1ccc(OC(C)C)cc1 (stereo not shown) (as salt: HCl)	203
COc1cc2c(cc1Cl)C(CCCN1CCNCC1)(c1ccccc1F)C(=O)N2S(=O)(=O)c1ccc(C)c(C)c1 (stereo not shown) (as salt: HCl) [compound 20, 5-chloro-1-[(3,4-dimethylphenyl)sulfonyl]-3-(2-fluorophenyl)-6-methoxy-3-(3-(piperazin-1-yl)propyl)-1,3-dihydro-2H-indol-2-one]	192
CCOc1ccc(S(=O)(=O)N2C(=O)C(CCCN3CCNCC3)(c3ccccc3F)c3cc(Cl)c(OC)cc32)cc1OC (stereo not shown) (as salt: HCl) [compound 18, 5-chloro-1-[(4-ethoxy-3-methoxyphenyl)sulfonyl]-3-(2-fluorophenyl)-6-methoxy-3-(3-(piperazin-1-yl)propyl)-1,3-dihydro-2H-indol-2-one]	220
CCOc1ccc(S(=O)(=O)N2C(=O)C(CCCN3CC[C@H](N)C3)(c3ccccc3F)c3cc(Cl)c(OC)cc32)cc1OC (stereo partly drawn) (as salt: HCl) [Compound No. 7, 3-{3-[(3S)-3-aminopyrrolidin-1-yl]propyl}-5-chloro-1-[(4-ethoxy-3-methoxy-phenyl)sulfonyl]-3-(2-fluorophenyl)-6-methoxy-1,3-dihydro-2H-indol-2-one]	238
COc1cc2c(cc1Cl)C(CCCN1CCN(C)CC1)(c1ccccc1F)C(=O)N2S(=O)(=O)c1ccc(OC(F)(F)C(F)F)cc1.Cl (stereo not shown)	164
COc1ccc(S(=O)(=O)N2C(=O)C(CCCN3CCN(C)CC3)(c3ccccc3F)c3cc(Cl)c(OC)cc32)c(OC)c1 (stereo not shown)	123
COc1cc2c(cc1Cl)C(CCCN1CCN(C)CC1)(c1cc(CO)ccc1F)C(=O)N2S(=O)(=O)c1ccc(OC(C)C)cc1 (stereo not shown)	97
COC(=O)c1ccc(F)c(C2(CCCN3CCN(C)CC3)C(=O)N(S(=O)(=O)c3ccc(OC(C)C)cc3)c3cc(OC)c(Cl)cc32)c1 (stereo not shown)	100
COc1ccc(S(=O)(=O)N2C(=O)C(CCCN3CCN(C)CC3)(c3ccccc3F)c3cc(OC)c(OC)cc32)cc1C (stereo not shown)	78
COc1cc2c(cc1Cl)C(CCCN1CCNCC1)(c1ccccc1F)C(=O)N2S(=O)(=O)c1ccc(OC(F)(F)F)cc1 (stereo not shown) (as salt: HCl) [compound 25, 5-chloro-3-(2-fluorophenyl)-6-methoxy-3-(3-(piperazin-1-yl)propyl)-1-{[4-(tri-fluoromethoxy)phenyl]sulfonyl}-1,3-dihydro-2H-indol-2-one]	220
CCOc1ccc(S(=O)(=O)N2C(=O)C(CCCN3CCNCC3)(c3ccccc3F)c3cc(Cl)c(OC)cc32)cc1 (stereo not shown) (as salt: HCl) [compound 22, 5-chloro-1-[(4-ethoxyphenyl)sulfonyl]-3-(2-fluorophenyl)-6-methoxy-3-(3-(piperazin-1-yl)propyl)-1,3-dihydro-2H-indol-2-one]	213

Compound	melting point [°C]
COc1ccc(S(=O)(=O)N2C(=O)C(CCCC3CCNCC3)(c3ccccc3F)c3cc(Cl)c(OC)cc32)c(OC)c1.Cl (stereo not shown) [Compound No. 2]	175
COc1cc2c(cc1C)C(CCCN1CCN(C)CC1)(c1ccccc1F)C(=O)N2S(=O)(=O)c1ccc(OC(C)C)cc1 (stereo not shown)	70
COc1cc2c(cc1OC)C(CCCN1CCN(C)CC1)(c1ccccc1F)C(=O)N2S(=O)(=O)c1ccc(OC(C)C)c(F)c1 (stereo not shown)	74
COc1cc2c(cc1Cl)C(CCCN1CCNCC1)(c1ccccc1F)C(=O)N2S(=O)(=O)c1ccc(O)cc1 (stereo not shown) (as salt: HCl) [Compound No. 46]	292
CCN(CC)C(=O)Nc1ccc(S(=O)(=O)N2C(=O)C(CCCN(C)C)(c3ccccc3F)c3cc(C)c(OC)cc32)cc1F (stereo not shown)	82
COc1cc2c(cc1Cl)C(CCCCCN(C)C)(c1ccccc1F)C(=O)N2S(=O)(=O)c1ccc(OC(C)C)cc1 (stereo not shown) (as salt: HCl)	125
COc1ccc(S(=O)(=O)N2C(=O)C(CCCC3CCNCC3)(c3ccccc3F)c3cc(Cl)c(OC)cc32)c(OC)c1.Cl (stereo not shown) [Compound No. 1]	163
COc1cc2c(cc1Cl)C(CCCN1CCN(C)CC1)(c1ccccc1F)C(=O)N2S(=O)(=O)c1ccc(OC)c(OC)c1 (stereo not shown)	90
COc1cc2c(cc1Cl)C(CCCN1CCCN(C)CC1)(c1ccccc1F)C(=O)N2S(=O)(=O)c1ccc(OC(C)C)cc1 (stereo not shown) (as salt: HCl)	202
CCN(CC)C(=O)Nc1ccc(S(=O)(=O)N2C(=O)C(CCCN(C)C)(c3ccccc3F)c3cc(C)c(OC)cc32)cc1C (stereo not shown)	98
COc1cc2c(cc1Cl)C(CCCN1CC[C@H](N)C1)(c1ccccc1F)C(=O)N2S(=O)(=O)c1ccc(OC(C)C)cc1 (stereo partly drawn) (as salt: HCl) [Compound No. 5, 3-{3-[(3S)-3-aminopyrrolidin-1-yl]propyl}-5-chloro-3-(2-fluorophenyl)-1-[(4-isopropoxyphenyl)sulfonyl]-6-methoxy-1,3-dihydro-2H-indol-2-one]	206
COc1cccc(S(=O)(=O)N2C(=O)C(CCCN3CCN(C)CC3)(c3ccccc3F)c3cc(Cl)c(OC)cc32)c1 (stereo not shown) (as salt: HCl) [Compound No. 38]	147
COc1cc2c(cc1F)C(CCCN1CCN(C)CC1)(c1ccccc1F)C(=O)N2S(=O)(=O)c1ccc(OC(C)C)c(F)c1 (stereo not shown)	72
COc1cc2c(cc1Cl)C(CCCN1CCNCC1)(c1ccccc1F)C(=O)N2S(=O)(=O)c1ccc(OC)c(OC)c1 (stereo not shown) (as salt: HCl) [compound 19, 5-chloro-1-[(3,4-dimethoxyphenyl)sulfonyl]-3-(2-fluorophenyl)-6-methoxy-3-(3-(piperazin-1-yl)propyl)-1,3-dihydro-2H-indol-2-one]	190
CCOc1ccc(S(=O)(=O)N2C(=O)C(CCCN3CCC(F)(F)CC3)(c3ccccc3F)c3cc(Cl)c(OC)cc32)cc1OC (stereo not shown) [compound 9, 5-chloro-3-[3-(4,4-difluoropiperidin-1-yl)propyl]-1-[(4-ethoxy-3-methoxy-phenyl)sulfonyl]-3-(2-fluorophenyl)-6-methoxy-1,3-dihydro-2H-indol-2-one]	88
COc1cc2c(cc1F)C(CCCN1CCN(C)CC1)(c1ccccc1F)C(=O)N2S(=O)(=O)c1ccc(OC(C)C)cc1 (stereo not shown)	72
CCOc1ccc(S(=O)(=O)N2C(=O)C(CCCN3CC[C@@H](N)C3)(c3ccccc3F)c3cc(Cl)c(OC)cc32)cc1OC (stereo partly drawn) (as salt: HCl) [Compound No. 6, 3-{3-[(3R)-3-aminopyrrolidin-1-yl]propyl}-5-chloro-1-[(4-ethoxy-3-methoxy-phenyl)sulfonyl]-3-(2-fluorophenyl)-6-methoxy-1,3-dihydro-2H-indol-2-one]	210
COc1cc2c(cc1Cl)C(CCCN1CCNCC1)(c1ccccc1F)C(=O)N2S(=O)(=O)c1ccccc1 (stereo not shown) (as salt: HCl) [compound 26, 5-chloro-3-(2-fluorophenyl)-6-methoxy-1-(phenylsulfonyl)-3-(3-(piperazin-1-yl)propyl)-1,3-dihydro-2H-indol-2-one]	238
CCOc1ccc(S(=O)(=O)N2C(=O)C(CCCN3CCNCC3)(c3ccccc3F)c3cc(Cl)c(OC)cc32)cc1C (stereo not shown) (as salt: HCl) [compound 23, 5-chloro-1-[(4-ethoxy-3-methylphenyl)sulfonyl]-3-(2-fluorophenyl)-6-methoxy-3-(3-(piperazin-1-yl)propyl)-1,3-dihydro-2H-indol-2-one]	226
COc1ccc(S(=O)(=O)N2C(=O)C(CCCN3CCNCC3)(c3ccccc3F)c3cc(F)c(OC)cc32)cc1C (stereo not shown) (as salt: HCl) [compound 107]	152
